system: Staphylococcus aureus; assay: Antimicrobial activity against clinical isolate Staphylococcus aureus CCM 451608 after 24 hrs; type: functional; conditions: CCM 451608, 24 h

SMILES	MIC [µM]
CCCCCCCCCCCCCC[n+]1ccc2ccccc2c1	0.5
CCCCCCCCCCCCCCCC[n+]1ccc2ccccc2c1	1
CCCCCCCCCCCCCCCCCC[n+]1ccc2ccccc2c1	0.5

system: Staphylococcus aureus; assay: Antimicrobial activity against clinical isolate Staphylococcus aureus CCM 451608 after 48 hrs; type: functional; conditions: CCM 451608, 48 h

SMILES	MBC [µM]	MIC [µM]
CCCCCCCCCCCCCC[n+]1ccc2ccccc2c1	1	0.5
CCCCCCCCCCCCCCCC[n+]1ccc2ccccc2c1	2	1
CCCCCCCCCCCCCCCCCC[n+]1ccc2ccccc2c1	2	0.5

system: Staphylococcus aureus; assay: Antimicrobial activity against clinical isolate methicillin-resistant Staphylococcus aureus H 599608 after 24 hrs; type: functional; conditions: H 599608, 24 h

SMILES	MIC [µM]
CCCCCCCCCCCCCC[n+]1ccc2ccccc2c1	0.5
CCCCCCCCCCCCCCCC[n+]1ccc2ccccc2c1	1
CCCCCCCCCCCCCCCCCC[n+]1ccc2ccccc2c1	0.5

system: Staphylococcus aureus; assay: Antimicrobial activity against clinical isolate methicillin-resistant Staphylococcus aureus H 599608 after 48 hrs; type: functional; conditions: H 599608, 48 h

SMILES	MBC [µM]	MIC [µM]
CCCCCCCCCCCCCC[n+]1ccc2ccccc2c1	1	0.5
CCCCCCCCCCCCCCCC[n+]1ccc2ccccc2c1	2	1
CCCCCCCCCCCCCCCCCC[n+]1ccc2ccccc2c1	2	0.5

system: Staphylococcus epidermidis; assay: Antimicrobial activity against clinical isolate Staphylococcus epidermidis H 696608 after 24 hrs; type: functional; conditions: H 696608, 24 h

SMILES	MIC [µM]
CCCCCCCCCCCCCC[n+]1ccc2ccccc2c1	0.5
CCCCCCCCCCCCCCCC[n+]1ccc2ccccc2c1	0.5
CCCCCCCCCCCCCCCCCC[n+]1ccc2ccccc2c1	0.5

system: Staphylococcus epidermidis; assay: Antimicrobial activity against clinical isolate Staphylococcus epidermidis H 696608 after 48 hrs; type: functional; conditions: H 696608, 48 h

SMILES	MBC [µM]	MIC [µM]
CCCCCCCCCCCCCC[n+]1ccc2ccccc2c1	1	0.5
CCCCCCCCCCCCCCCC[n+]1ccc2ccccc2c1	2	0.5
CCCCCCCCCCCCCCCCCC[n+]1ccc2ccccc2c1	2	0.5

system: Enterococcus sp.; assay: Antimicrobial activity against clinical isolate Enterococcus sp. J 1436508 after 24 hrs; type: functional; conditions: J 1436508, 24 h

SMILES	MIC [µM]
CCCCCCCCCCCCCC[n+]1ccc2ccccc2c1	0.5
CCCCCCCCCCCCCCCC[n+]1ccc2ccccc2c1	1
CCCCCCCCCCCCCCCCCC[n+]1ccc2ccccc2c1	2

system: Enterococcus sp.; assay: Antimicrobial activity against clinical isolate Enterococcus sp. J 1436508 after 48 hrs; type: functional; conditions: J 1436508, 48 h

SMILES	MBC [µM]	MIC [µM]
CCCCCCCCCCCCCC[n+]1ccc2ccccc2c1	3.9	0.5
CCCCCCCCCCCCCCCC[n+]1ccc2ccccc2c1	3.9	1
CCCCCCCCCCCCCCCCCC[n+]1ccc2ccccc2c1	2	2

system: Escherichia coli; assay: Antimicrobial activity against clinical isolate Escherichia coli CCM 4517 after 24 hrs; type: functional; conditions: CCM 4517, 24 h

SMILES	MIC [µM]
CCCCCCCCCCCCCC[n+]1ccc2ccccc2c1	2
CCCCCCCCCCCCCCCC[n+]1ccc2ccccc2c1	3.9
CCCCCCCCCCCCCCCCCC[n+]1ccc2ccccc2c1	31

system: Escherichia coli; assay: Antimicrobial activity against clinical isolate Escherichia coli CCM 4517 after 48 hrs; type: functional; conditions: CCM 4517, 48 h

SMILES	MBC [µM]	MIC [µM]
CCCCCCCCCCCCCC[n+]1ccc2ccccc2c1	3.9	2
CCCCCCCCCCCCCCCC[n+]1ccc2ccccc2c1	3.9	3.9
CCCCCCCCCCCCCCCCCC[n+]1ccc2ccccc2c1	31	31

system: Klebsiella pneumoniae; assay: Antimicrobial activity against clinical isolate Klebsiella pneumoniae D 1175008 after 24 hrs; type: functional; conditions: D 1175008, 24 h

SMILES	MIC [µM]
CCCCCCCCCCCCCC[n+]1ccc2ccccc2c1	3.9
CCCCCCCCCCCCCCCC[n+]1ccc2ccccc2c1	3.9
CCCCCCCCCCCCCCCCCC[n+]1ccc2ccccc2c1	63

system: Klebsiella pneumoniae; assay: Antimicrobial activity against clinical isolate Klebsiella pneumoniae D 1175008 after 48 hrs; type: functional; conditions: D 1175008, 48 h

SMILES	MBC [µM]	MIC [µM]
CCCCCCCCCCCCCC[n+]1ccc2ccccc2c1	3.9	3.9
CCCCCCCCCCCCCCCC[n+]1ccc2ccccc2c1	7.8	3.9
CCCCCCCCCCCCCCCCCC[n+]1ccc2ccccc2c1	63	63

system: Klebsiella pneumoniae; assay: Antimicrobial activity against clinical isolate ESBL-Klebsiella pneumoniae J 1436808 after 24 hrs; type: functional; conditions: J 1436808, 24 h

SMILES	MIC [µM]
CCCCCCCCCCCCCC[n+]1ccc2ccccc2c1	31
CCCCCCCCCCCCCCCC[n+]1ccc2ccccc2c1	7.8
CCCCCCCCCCCCCCCCCC[n+]1ccc2ccccc2c1	63

system: Klebsiella pneumoniae; assay: Antimicrobial activity against clinical isolate ESBL-Klebsiella pneumoniae J 1436808 after 48 hrs; type: functional; conditions: J 1436808, 48 h

SMILES	MBC [µM]	MIC [µM]
CCCCCCCCCCCCCC[n+]1ccc2ccccc2c1	31	31
CCCCCCCCCCCCCCCC[n+]1ccc2ccccc2c1	31	7.8
CCCCCCCCCCCCCCCCCC[n+]1ccc2ccccc2c1	250	63

system: Pseudomonas aeruginosa; assay: Antimicrobial activity against clinical isolate Pseudomonas aeruginosa CCM 1961 after 72 hrs; type: functional; conditions: CCM 1961, 72 h

SMILES	MIC [µM]
CCCCCCCCCCCCCC[n+]1ccc2ccccc2c1	63
CCCCCCCCCCCCCCCC[n+]1ccc2ccccc2c1	125
CCCCCCCCCCCCCCCCCC[n+]1ccc2ccccc2c1	125

system: Pseudomonas aeruginosa; assay: Antimicrobial activity against clinical isolate Pseudomonas aeruginosa CCM 1961 after 120 hrs; type: functional; conditions: CCM 1961, 120 h

SMILES	MBC [µM]	MIC [µM]
CCCCCCCCCCCCCC[n+]1ccc2ccccc2c1	63	63
CCCCCCCCCCCCCCCC[n+]1ccc2ccccc2c1	125	125
CCCCCCCCCCCCCCCCCC[n+]1ccc2ccccc2c1	250	125

system: Candida albicans; assay: Antimicrobial activity against Candida albicans ATCC 44859 after 24 hrs by spectrophotometry; type: functional; conditions: ATCC 44859, 24 h

SMILES	MIC [µM]
CCCCCCCCCCCCCC[n+]1ccc2ccccc2c1	0.5
CCCCCCCCCCCCCCCC[n+]1ccc2ccccc2c1	2
CCCCCCCCCCCCCCCCCC[n+]1ccc2ccccc2c1	2

system: Aspergillus fumigatus; assay: Antimicrobial activity against Aspergillus fumigatus 231 after 24 hrs by spectrophotometry; type: functional; conditions: Aspergillus fumigatus, 231, 24 h

SMILES	MIC [µM]
CCCCCCCCCCCCCC[n+]1ccc2ccccc2c1	7.8
CCCCCCCCCCCCCCCC[n+]1ccc2ccccc2c1	3.9
CCCCCCCCCCCCCCCCCC[n+]1ccc2ccccc2c1	63

system: Candida albicans; assay: Antimicrobial activity against Candida albicans ATCC 44859 after 48 hrs by spectrophotometry; type: functional; conditions: ATCC 44859, 48 h

SMILES	MFC [µM]	MIC [µM]
CCCCCCCCCCCCCC[n+]1ccc2ccccc2c1	1	0.5
CCCCCCCCCCCCCCCC[n+]1ccc2ccccc2c1	2	2
CCCCCCCCCCCCCCCCCC[n+]1ccc2ccccc2c1	2	2

system: Candida tropicalis; assay: Antimicrobial activity against Candida tropicalis 156 after 24 hrs by spectrophotometry; type: functional; conditions: Candida tropicalis, 156, 24 h

SMILES	MIC [µM]
CCCCCCCCCCCCCC[n+]1ccc2ccccc2c1	0.5
CCCCCCCCCCCCCCCC[n+]1ccc2ccccc2c1	2
CCCCCCCCCCCCCCCCCC[n+]1ccc2ccccc2c1	2

system: Candida tropicalis; assay: Antimicrobial activity against Candida tropicalis 156 after 48 hrs by spectrophotometry; type: functional; conditions: Candida tropicalis, 156, 48 h

SMILES	MFC [µM]	MIC [µM]
CCCCCCCCCCCCCC[n+]1ccc2ccccc2c1	1	0.5
CCCCCCCCCCCCCCCC[n+]1ccc2ccccc2c1	2	2
CCCCCCCCCCCCCCCCCC[n+]1ccc2ccccc2c1	2	2

system: Pichia kudriavzevii; assay: Antimicrobial activity against Candida krusei E28 after 24 hrs by spectrophotometry; type: functional; conditions: E28, 24 h

SMILES	MIC [µM]
CCCCCCCCCCCCCC[n+]1ccc2ccccc2c1	0.5
CCCCCCCCCCCCCCCC[n+]1ccc2ccccc2c1	2
CCCCCCCCCCCCCCCCCC[n+]1ccc2ccccc2c1	2

system: Pichia kudriavzevii; assay: Antimicrobial activity against Candida krusei E28 after 48 hrs by spectrophotometry; type: functional; conditions: E28, 48 h

SMILES	MFC [µM]	MIC [µM]
CCCCCCCCCCCCCC[n+]1ccc2ccccc2c1	1	0.5
CCCCCCCCCCCCCCCC[n+]1ccc2ccccc2c1	2	2
CCCCCCCCCCCCCCCCCC[n+]1ccc2ccccc2c1	2	2

system: Nakaseomyces glabratus; assay: Antimicrobial activity against Candida glabrata 20/I after 24 hrs by spectrophotometry; type: functional; conditions: not given

SMILES	MIC [µM]
CCCCCCCCCCCCCC[n+]1ccc2ccccc2c1	0.5
CCCCCCCCCCCCCCCC[n+]1ccc2ccccc2c1	2
CCCCCCCCCCCCCCCCCC[n+]1ccc2ccccc2c1	1

system: Nakaseomyces glabratus; assay: Antimicrobial activity against Candida glabrata 20/I after 48 hrs by spectrophotometry; type: functional; conditions: not given

SMILES	MFC [µM]	MIC [µM]
CCCCCCCCCCCCCC[n+]1ccc2ccccc2c1	3.9	0.5
CCCCCCCCCCCCCCCC[n+]1ccc2ccccc2c1	2	2
CCCCCCCCCCCCCCCCCC[n+]1ccc2ccccc2c1	2	1

system: Trichosporon asahii; assay: Antimicrobial activity against Trichosporon asahii 1188 after 24 hrs by spectrophotometry; type: functional; conditions: Trichosporon asahii, 1188, 24 h

SMILES	MIC [µM]
CCCCCCCCCCCCCC[n+]1ccc2ccccc2c1	3.9
CCCCCCCCCCCCCCCC[n+]1ccc2ccccc2c1	3.9
CCCCCCCCCCCCCCCCCC[n+]1ccc2ccccc2c1	2

system: Trichosporon asahii; assay: Antimicrobial activity against Trichosporon asahii 1188 after 48 hrs by spectrophotometry; type: functional; conditions: Trichosporon asahii, 1188, 48 h

SMILES	MFC [µM]	MIC [µM]
CCCCCCCCCCCCCC[n+]1ccc2ccccc2c1	3.9	3.9
CCCCCCCCCCCCCCCC[n+]1ccc2ccccc2c1	3.9	3.9
CCCCCCCCCCCCCCCCCC[n+]1ccc2ccccc2c1	2	2

system: Aspergillus fumigatus; assay: Antimicrobial activity against Aspergillus fumigatus 231 after 48 hrs by spectrophotometry; type: functional; conditions: Aspergillus fumigatus, 231, 48 h

SMILES	MFC [µM]	MIC [µM]
CCCCCCCCCCCCCC[n+]1ccc2ccccc2c1	7.8	7.8
CCCCCCCCCCCCCCCC[n+]1ccc2ccccc2c1	3.9	3.9
CCCCCCCCCCCCCCCCCC[n+]1ccc2ccccc2c1	63	63

system: Lichtheimia corymbifera; assay: Antimicrobial activity against Absidia corymbifera 272 after 24 hrs by spectrophotometry; type: functional; conditions: Lichtheimia corymbifera, 272, 24 h

SMILES	MIC [µM]
CCCCCCCCCCCCCC[n+]1ccc2ccccc2c1	31
CCCCCCCCCCCCCCCC[n+]1ccc2ccccc2c1	16
CCCCCCCCCCCCCCCCCC[n+]1ccc2ccccc2c1	7.8

system: Lichtheimia corymbifera; assay: Antimicrobial activity against Absidia corymbifera 272 after 48 hrs by spectrophotometry; type: functional; conditions: Lichtheimia corymbifera, 272, 48 h

SMILES	MFC [µM]	MIC [µM]
CCCCCCCCCCCCCC[n+]1ccc2ccccc2c1	250	31
CCCCCCCCCCCCCCCC[n+]1ccc2ccccc2c1	125	16
CCCCCCCCCCCCCCCCCC[n+]1ccc2ccccc2c1	63	7.8

system: Trichophyton mentagrophytes; assay: Antimicrobial activity against Trichophyton mentagrophytes 445 after 72 hrs by spectrophotometry; type: functional; conditions: Trichophyton mentagrophytes, 445, 72 h

SMILES	MIC [µM]
CCCCCCCCCCCCCC[n+]1ccc2ccccc2c1	3.9
CCCCCCCCCCCCCCCC[n+]1ccc2ccccc2c1	2
CCCCCCCCCCCCCCCCCC[n+]1ccc2ccccc2c1	2

system: Trichophyton mentagrophytes; assay: Antimicrobial activity against Trichophyton mentagrophytes 445 after 120 hrs by spectrophotometry; type: functional; conditions: Trichophyton mentagrophytes, 445, 120 h

SMILES	MFC [µM]	MIC [µM]
CCCCCCCCCCCCCC[n+]1ccc2ccccc2c1	16	3.9
CCCCCCCCCCCCCCCC[n+]1ccc2ccccc2c1	7.8	2
CCCCCCCCCCCCCCCCCC[n+]1ccc2ccccc2c1	31	2

system: not listed separately; assay: Cytotoxicity against CHOK1 cells after 24 hrs by MTT assay; type: cell-based; conditions: Cricetulus griseus, CHO-K1, 24 h

SMILES	IC50 [µM]
CCCCCCCCCCCCCC[n+]1ccc2ccccc2c1	9
CCCCCCCCCCCCCCCC[n+]1ccc2ccccc2c1	7
CCCCCCCCCCCCCCCCCC[n+]1ccc2ccccc2c1	6
CCCCCCCCCCCCCCCCCC[n+]1ccc2c(O)cccc2c1	7

— ChEMBL document CHEMBL3751693, “Synthesis, antimicrobial evaluation and molecular modeling of 5-hydroxyisoquinolinium salt series; the effect of the hydroxyl moiety” (Bioorg Med Chem, 2016)
